Tested on: CD8+ T cells
Assay: In vitro immunogenicity of HLA-A*02 peptides (CD8+ T-cell priming with aAPCs, multimer staining)
Type: cell-based, human
Description: In order to obtain information regarding the immunogenicity of the TUMAPs of the present invention, the inventors performed investigations using an in vitro T-cell priming assay based on repeated stimulations of CD8+ T cells with artificial antigen presenting cells (aAPCs) loaded with peptide/MHC complexes and anti-CD28 antibody.
In order to perform in vitro stimulations by artificial antigen presenting cells loaded with peptide-MHC complex (pMHC) and anti-CD28 antibody, the inventors first isolated CD8+ T cells from fresh HLA-A*02 leukapheresis products via positive selection using CD8 microbeads (Miltenyi Biotec, Bergisch-Gladbach, Germany) of healthy donors obtained from the University clinics Mannheim, Germany, after informed consent.
PBMCs and isolated CD8+ lymphocytes were incubated in T-cell medium (TCM) until use consisting of RPMI-Glutamax (Invitrogen, Karlsruhe, Germany) supplemented with 10% heat inactivated human AB serum (PAN-Biotech, Aidenbach, Germany), 100 U/ml Penicillin/100 μg/ml Streptomycin (Cambrex, Cologne, Germany), 1 mM sodium pyruvate (CC Pro, Oberdorla, Germany), 20 μg/ml Gentamycin (Cambrex). 2.5 ng/ml IL-7 (PromoCell, Heidelberg, Germany) and 10 U/ml IL-2 (Novartis Pharma, Nurnberg, Germany) were also added to the TCM at this step.
Generation of pMHC/anti-CD28 coated beads, T-cell stimulations and readout was performed in a highly defined in vitro system using four different pMHC molecules per stimulation condition and 8 different pMHC molecules per readout condition.
The purified co-stimulatory mouse IgG2a anti human CD28 Ab 9.3 (Jung et al., 1987) was chemically biotinylated using Sulfo-N-hydroxysuccinimidobiotin as recommended by the manufacturer (Perbio, Bonn, Germany). Beads used were 5.6 μm diameter streptavidin coated polystyrene particles (Bangs Laboratories, Illinois, USA).
800.000 beads/200 μl were coated in 96-well plates in the presence of 4×12.5 ng different biotin-pMHC, washed and 600 ng biotin anti-CD28 were added subsequently in a volume of 200 μl. Stimulations were initiated in 96-well plates by co-incubating 1×10^6 CD8+ T cells with 2×10^5 washed coated beads in 200 μl TCM supplemented with 5 ng/ml IL-12 (PromoCell) for 3 days at 37° C. Half of the medium was then exchanged by fresh TCM supplemented with 80 U/ml IL-2 and incubating was continued for 4 days at 37° C. This stimulation cycle was performed for a total of three times. For the pMHC multimer readout using 8 different pMHC molecules per condition, a two-dimensional combinatorial coding approach was used as previously described (Andersen et al., 2012) with minor modifications encompassing coupling to 5 different fluorochromes. Finally, multimeric analyses were performed by staining the cells with Live/dead near IR dye (Invitrogen, Karlsruhe, Germany), CD8-FITC antibody clone SK1 (BD, Heidelberg, Germany) and fluorescent pMHC multimers. For analysis, a BD LSRII SORP cytometer equipped with appropriate lasers and filters was used. Peptide specific cells were calculated as percentage of total CD8+ cells. Evaluation of multimeric analysis was done using the FlowJo software (Tree Star, Oregon, USA). In vitro priming of specific multimer+CD8+ lymphocytes was detected by comparing to negative control stimulations.

Row | Substance | in vitro immunogenicity: donors | in vitro immunogenicity: wells
1 | ALLNILSEV (listed as Homo sapiens) [SEQ ID No. 8] | ++++ (>= 70% = ++++) | ++ (20%-49% = ++)
2 | VLLPVEVATHYL (listed as Homo sapiens) [SEQ ID No. 142] | ++ (20%-49% = ++) | + (<20% = +)
3 | RLASYLDKV (listed as Homo sapiens) [SEQ ID No. 133] | ++++ (>= 70% = ++++) | ++ (20%-49% = ++)
4 | UBE2S-001 (ALNEEAGRLLL; listed as Homo sapiens) | ++++ (>= 70% = ++++) | + (<20% = +)
5 | ABCA13-001 (ILFEINPKL) | ++++ (>= 70% = ++++) | + (<20% = +)
6 | NLIEKSIYL (listed as Homo sapiens) [SEQ ID No. 141] | ++++ (>= 70% = ++++) | + (<20% = +)
7 | COG4-001 (SLVAVELEKV) | ++++ (>= 70% = ++++) | + (<20% = +)
8 | ILQDRLNQV (listed as Homo sapiens) [SEQ ID No. 152] | +++ (50%-69% = +++) | + (<20% = +)
9 | TLYPHTSQV (listed as Homo sapiens) [SEQ ID No. 140] | ++++ (>= 70% = ++++) | ++ (20%-49% = ++)
10 | KILEDVVGV (listed as Homo sapiens) [SEQ ID No. 130] | ++++ (>= 70% = ++++) | ++ (20%-49% = ++)
11 | COL6A3-002 (FLLDGSANV; listed as Homo sapiens) | ++++ (>= 70% = ++++) | ++ (20%-49% = ++)
12 | KLDETNNTL (listed as Homo sapiens) [SEQ ID No. 158] | ++ (20%-49% = ++) | + (<20% = +)
13 | SMYD3-001 (SLIEDLILL; listed as Homo sapiens) | ++ (20%-49% = ++) | + (<20% = +)
14 | BNC1-001 (VLFPNLKTV) | ++++ (>= 70% = ++++) | + (<20% = +)
15 | MAGEF1-001 (ILFPDIIARA; listed as Homo sapiens) | ++++ (>= 70% = ++++) | +++ (50%-69% = +++)
16 | SERPINB3-001 (KLFGEKTYL) | +++ (50%-69% = +++) | + (<20% = +)
17 | ATP-001 (SLHFLILYV; listed as Homo sapiens) | ++++ (>= 70% = ++++) | ++++ (>= 70% = ++++)
18 | DUSP4-001 (FVFSFPVSV; listed as Homo sapiens) | ++++ (>= 70% = ++++) | ++ (20%-49% = ++)
19 | RAD54B-001 (SLYKGLLSV; listed as Homo sapiens) | ++++ (>= 70% = ++++) | ++ (20%-49% = ++)
20 | WNT5A-001 (AMSSKFFLV; listed as Homo sapiens) | ++++ (>= 70% = ++++) | ++ (20%-49% = ++)
21 | TLLDFINAV (listed as Homo sapiens) [SEQ ID No. 108] | +++ (50%-69% = +++) | + (<20% = +)
22 | AIVDKVPSV (listed as Homo sapiens) [SEQ ID No. 143] | +++ (50%-69% = +++) | + (<20% = +)

Row | Substance | in vitro immunogenicity: donors | in vitro immunogenicity: wells
23 | ALVDHTPYL (listed as Homo sapiens) [SEQ ID No. 136] | ++++ (>= 70% = ++++) | + (<20% = +)
24 | ILLTEQINL (listed as Homo sapiens) [SEQ ID No. 18] | ++ (20%-49% = ++) | + (<20% = +)
25 | PLT-001 (ALFGALFLA; listed as Homo sapiens) | ++ (20%-49% = ++) | + (<20% = +)
26 | VLTSDSPAL (listed as Homo sapiens) [SEQ ID No. 19] | ++++ (>= 70% = ++++) | + (<20% = +)
27 | LIQDRVAEV (listed as Homo sapiens) [SEQ ID No. 14] | ++++ (>= 70% = ++++) | + (<20% = +)
28 | FLFDGSANL (listed as Homo sapiens) [SEQ ID No. 13] | ++ (20%-49% = ++) | + (<20% = +)
29 | MCM5-001 (ALSGTLSGV; listed as Homo sapiens) | ++++ (>= 70% = ++++) | + (<20% = +)
30 | BUB1B-001 (KIVDFSYSV) | ++++ (>= 70% = ++++) | ++ (20%-49% = ++)
31 | PCNXL3-001 (GVLENIFGV; listed as Homo sapiens) | +++ (50%-69% = +++) | + (<20% = +)
32 | KIF26B-001 (TVAEVIQSV; listed as Homo sapiens) | + (<20% = +) | + (<20% = +)
33 | IVAESLQQV (listed as Homo sapiens) [SEQ ID No. 105] | + (<20% = +) | + (<20% = +)
34 | KIIGIMEEV (listed as Homo sapiens) [SEQ ID No. 95] | ++++ (>= 70% = ++++) | ++++ (>= 70% = ++++)
35 | KIQEILTQV (listed as Homo sapiens) [SEQ ID No. 120] | ++++ (>= 70% = ++++) | + (<20% = +)
36 | ABCA13-002 (ALDENLHQL) | +++ (50%-69% = +++) | + (<20% = +)
37 | MXRA5-001 (TLSSIKVEV; listed as Homo sapiens) | ++++ (>= 70% = ++++) | + (<20% = +)
38 | CCNB2-001 (ILVDWLVQV; listed as Homo sapiens) | ++++ (>= 70% = ++++) | ++ (20%-49% = ++)
39 | FLIPYAIML (listed as Homo sapiens) [SEQ ID No. 2] | ++++ (>= 70% = ++++) | + (<20% = +)
40 | SNRNP20-001 (GLIEIISNA; listed as Homo sapiens) | ++++ (>= 70% = ++++) | ++ (20%-49% = ++)
41 | GFPT2-001 (AIDGNNHEV) | ++++ (>= 70% = ++++) | +++ (50%-69% = +++)
42 | GBP5-001 (SLLSELQHA; listed as Homo sapiens) | ++ (20%-49% = ++) | + (<20% = +)
43 | DONSON-001 (VLYPHEPTAV; listed as Homo sapiens) | ++++ (>= 70% = ++++) | + (<20% = +)
